Measured values: patent publication US7410971B2, “1,2-di(cyclic)substituted benzene compounds” (Eisai R&D Management Co., Ltd., priority 2003, dated 2008)

Tests used:
Jurkat cells = test: Jurkat cell adhesion system (adhesion to immobilized human fibronectin, PMA-stimulated); assay type: cell-based; settings: concentration inhibiting by 50% the PMA-stimulated increase in number of adhered Jurkat cells on human fibronectin
Experimental: Evaluation of Compounds in Jurkat Cell Adhesion System
<Immobilization of Human Fibronectin in 96-Well Plate>
Human fibronectin (Becton Dickinson Biosciences) was diluted with phosphate-buffered saline (hereinafter abbreviated as PBS; Sigma) to 0.1-0.01 μg/ml, and the diluted solution was added to a 96-well plate (Becton Dickinson) at 50μ/well, and allowed to stand overnight at 4° C. On the following day, the supernatant was removed from the plate, and then PBS containing 1% bovine serum albumin (hereinafter abbreviated as BSA; Sigma) was added thereto at 100 μl/well and incubation was performed at 37° C. for 2 hours in a CO2 incubator (Hirasawa).
The supernatant was removed from each plate and Jurkat cells suspended in RPMI-1640 (Sigma) containing 1 mg/ml BSA were added at 80 μl/well for 2.5×10^5 cells/well. The compound diluted to different concentrations with RPMI-1640 containing 1 mg/ml BSA was immediately added at 10 μl/well, and then 100 nM phorbol myristate acetate (hereinafter abbreviated as PMA; Sigma) in RPMI-1640 containing 1 mg/ml BSA was added at 10 μl/well and the plate was incubated in a CO2 incubator at 37° C. for 45-60 minutes. The supernatant was removed from the plate and each well was washed several times with 100 μl/well of RPMI-1640, after which 50 mM citrate buffer (pH 5.0) containing 3.75 mM p-nitrophenol-N-acetyl-β-D-glucosaminide (Sigma) and 0.25% Triton X-100 (Sigma) were added at 60 μl/well, and the mixture was placed in a CO2 incubator and incubated at 37° C. for 45 minutes. After incubation, 50 mM glycine buffer (pH 10.4) containing 5 mM EDTA was added at 90 μl/well, and the absorbance at 405 nm was measured with an EL340 Automated Microplate Reader (BIO-TEK) to determine the adhered cell count. The concentration of each compound which inhibited the increase in the number of adhered cells by the PMA-stimulation by 50% was recorded as the IC50 (μM).

[1] = test system: colon-infiltrating neutrophils (myeloperoxidase enzyme activity); test: Oxazolone-induced colon neutrophil infiltration model; assay type: in vivo, Balb/c mice; settings: Mus musculus, po, 30 mg/kg orally 30 minutes prior to intrarectal oxazolone, colon myeloperoxidase activity 4 hours after, vs oxazolone control group, read-out: Inhibitory rate (%)
Experimental: Evaluation of Compounds in Oxazolone-Induced Colon Neutrophil Infiltration Model
<Sensitization with Oxazolone>
Five- to six-week-old male Balb/c mice (Charles River Japan) were shaven at the abdomen to an approximately 2 cm square area. A 100% ethanol solution containing 3% 4-ethoxymethylene-2-phenyl-2-oxazolin-5-one (hereinafter referred to as “oxazolone”; Sigma) was applied at 150 μl onto the abdomen of each mouse.
<Preparation of Emulsion Containing Oxazolone>
Distilled water (Otsuka Pharmaceutical) was added in an equivalent volume to 100% peanut oil (Kanto Kagaku) containing 1% oxazolone, and the components were vigorously mixed with a glass syringe (Top Co.), to prepare an emulsion containing 0.5% oxazolone.
<Induction with Oxazolone>
The mice were fasted on the 3rd day after oxazolone sensitization, and were injected with 100 μl of the emulsion containing 0.5% oxazolone prepared in the way described above intrarectally at a site approximately 3 cm from the anus under ether anesthesia on the 4th day.
<Colon-Infiltrating Neutrophil Assay>
Each compound was suspended or dissolved in an aqueous solution containing 0.5% methyl cellulose (Wako), and orally administered at 30 mg/kg 30 minutes prior to the intrarectal injection of oxazolone emulsion. Four hours after the intrarectal injection of oxazolone, mice were sacrificed by cervical dislocation, and colons were extirpated, dissected in the longitudinal direction, washed with physiological saline, and transferred to ice-cooled plastic centrifugation tubes. After adding 1 ml of 50 mM potassium phosphate buffer (hereinafter abbreviated as KPB) (pH 6.0) to the tube, and the tissue were homogenized with PHYSCOTRON (Microtec Nition Co., Ltd.), 2 ml of 50 mM KPB (pH 6.0) was added and the mixture was centrifuged at 3000 rpm, 4° C. for 10 minutes and the supernatant was removed. To the resultant precipitate was added 1 ml of 50 mM KPB (pH 6.0) containing 0.5% hexadecyltrimethyl-ammonium bromide (Sigma), and freeze-thawed 3 to 5 times using liquid nitrogen and hot water, centrifuged at 3000 rpm, 4° C. for 10 minutes to yield a supernatant. The myeloperoxidase enzyme activity in the supernatant was assayed in the following manner. Specifically, to 10 μl of the obtained supernatant was added 200 μl of 50 mM KPB (pH6.0) containing 0.017% o-dianisidine (Sigma) and 0.0005% hydrogen peroxide (Wako), incubated at 37° C., and the change in absorbance at 450 nm was continuously measured for 1 minute using an EL340 Automated Microplate Reader (BIO-TEK) in kinetic mode. The units were the rate of change in absorbance per minute (mO.D./min.). With regard to the effect of each compound, the inhibitory rate (%) with respect to the oxazolone control group, i.e. the oxazolone-injected/compound-free group, was shown in the table 3.

SMILES	IC50 (Jurkat cells) [µM]	inhibition in vivo at 30 mg/kg [1] [%]
CCCCN1CCN(c2cc(C#N)ccc2[C@H]2CC[C@H](C(C)(C)C)CC2)CC1.Cl [Example 13, trans-4-(4-t-Butylcyclohexyl)-3-(4-butylpiperazin-1-yl)benzonitrile hydrochloride]	3.9	13
CCCCN1CCN(c2cc(C#N)ccc2[C@H]2CC[C@@H](C(C)(C)C)CC2)CC1.Cl [Example 12, cis-4-(4-t-Butylcyclohexyl)-3-(4-butylpiperazine-1-yl)benzonitrile hydrochloride]	3.1	34
